Read-outs that look alike come from different tables or passages of the source.
Target: T1, COX-1 (Sus scrofa, UniProt A0A287ANF9)
T1 construct: A platelet suspension obtained from pig's blood is preincubated with the test substance; endogenous in cells; host or cells: platelets from pig's blood
Assay: In-vitro test for COX-1 inhibition: fluorimetric quantification of malonaldehyde (MDA) in A23187-activated pig platelet suspension
Format: cell-based
Experimental: In-vitro Test Procedure for the Determination of COX-1 Inhibition
The inhibition of the cyclooxygenase pathway is carried out by fluorimetric quantification of malonaldehyde (MA). This condenses in the acidic medium with twice the molar amount of thiobarbituric acid to give a red pigment dye, which has a fluorescence at λExcitation: 533 nm, λEmission: 550 nm.
A platelet suspension obtained from pig's blood is preincubated with the test substance for 10 min at 37° C. The concentration of the suspension should be 8×10^8 cells/ml. The arachidonic acid cascade is then activated by addition of the antibiotic calcium ionophore A23187 ([…]). After a further 10 min at 37° C., the reaction is stopped using a trichloroacetic acid solution. The samples are centrifuged and the supernatant is incubated with thiobarbituric acid for 30 min at 70° C. After cooling (30 min at room temperature), the samples are measured fluorimetrically at 533/550 nm and the IC50 values of the test compounds are determined therefrom by means of a calibration curve.

[1] = Table 1, carbamic acid thioesters, pig platelets, read-out: MDA IC50
[2] = Table 7, arylamides, pig platelets, read-out: MDA IC50
[3] = Table 1, carbamic acid thioesters, pig platelets, read-out: MDA pIC50 (converted)
[4] = Table 9, alkylamides, pig platelets, read-out: MDA IC50
[5] = Table 5, heteroarylmethyl sulfides, pig platelets, read-out: MDA IC50
[6] = Table 14, sulfones and their sulfide analogs, pig platelets, read-out: MDA IC50
[7] = Table 7, arylamides, pig platelets, read-out: MDA pIC50 (converted)

T1 sequence (A0A287ANF9 25-600): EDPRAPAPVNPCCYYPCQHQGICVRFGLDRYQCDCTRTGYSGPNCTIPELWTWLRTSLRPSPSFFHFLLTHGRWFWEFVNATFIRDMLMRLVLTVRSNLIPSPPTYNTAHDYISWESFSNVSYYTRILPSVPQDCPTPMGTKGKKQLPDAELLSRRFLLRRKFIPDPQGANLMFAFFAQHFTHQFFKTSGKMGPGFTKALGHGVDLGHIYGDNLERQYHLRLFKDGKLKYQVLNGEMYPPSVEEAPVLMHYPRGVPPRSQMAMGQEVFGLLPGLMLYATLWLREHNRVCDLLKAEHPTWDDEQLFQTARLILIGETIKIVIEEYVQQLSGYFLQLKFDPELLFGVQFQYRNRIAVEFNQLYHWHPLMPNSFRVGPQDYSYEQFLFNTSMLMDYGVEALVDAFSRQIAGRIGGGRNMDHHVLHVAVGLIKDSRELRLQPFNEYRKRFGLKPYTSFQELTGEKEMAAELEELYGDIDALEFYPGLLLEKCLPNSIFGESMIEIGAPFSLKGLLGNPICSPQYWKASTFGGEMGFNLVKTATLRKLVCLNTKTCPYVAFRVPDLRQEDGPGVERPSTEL

**Q.** For `COc1ccc(-c2nc(SCCN(C)C)[nH]c2-c2ccc(OC)cc2)cc1` [Compound T14, N,N-Dimethyl-[4,5-bis(4-methoxyphenyl)-1H-imidazol-2-ylsulfanyl]-ethanamine], which “MDA pIC50” value (Table 3, amines, pig platelets) is on record?
**A.** 5.49 M

**Q.** What about the IC50 (Table 3, amines, pig platelets, read-out: MDA IC50) of the same compound?
**A.** 3200 nM

**Q.** How did the IC50 [1] turn out when `CN(C)C(=O)Sc1nc(-c2ccc(Cl)cc2)c(-c2ccccc2)[nH]1` [Compound T103, [4-(4-Chlorophenyl)-5-phenyl-1H-imidazol-2-yl]-N,N-dimethylcarbamic acid thioester] was run?
**A.** 7300 nM

**Q.** For `COc1ccc(-c2nc(SCCNC(=O)c3ccccc3)[nH]c2-c2ccc(OC)cc2)cc1` [Compound T28, N^1-{2-[4,5-Bis(4-methoxyphenyl)-1H-imidazol-2-ylsufanyl]ethyl}benzamide], which IC50 [2] is on record?
**A.** 540 nM

**Q.** With `COc1ccc(-c2nc(SCCNC(=O)c3ccc(C(C)(C)C)cc3)[nH]c2-c2ccc(OC)cc2)cc1` [Compound T48, N^1-{2-[4,5-Bis(4-methoxyphenyl)-1H-imidazol-2-ylsufanyl]ethyl}-4-(tert-butyl)benzamide] as the compound, how does the IC50 [2] read?
**A.** 82 nM

**Q.** With `COc1ccc(-c2nc(SCCNC(=O)c3cccc(Cl)c3)[nH]c2-c2ccc(OC)cc2)cc1` [Compound T33, N^1-{2-[4,5-Bis(4-methoxyphenyl)-1H-imidazol-2-ylsufanyl]ethyl}-3-chlorobenzamide] as the compound, how does the “MDA pIC50” value (Table 7, arylamides, pig platelets) read?
**A.** 6.03 M

**Q.** And the IC50 [2]?
**A.** 930 nM

**Q.** With `COc1ccc(-c2nc(SC(=O)N3CCOCC3)[nH]c2-c2ccc(OC)cc2)cc1` [Compound T4, [4,5-Bis(4-methoxyphenyl)-1H-imidazol-2-yl]-morpholine-4-carbamic acid thioester] as the compound, how does the IC50 [3] read?
**A.** 28.2 nM

**Q.** Which IC50 (Table 13, urea derivatives, pig platelets, read-out: MDA IC50) does the source give for `CCN(CC)C(=O)NCCSc1nc(-c2ccc(OC)cc2)c(-c2ccc(OC)cc2)[nH]1` [Compound T58, N^1-{2-[4,5-Bis(4-methoxyphenyl)-1H-imidazol-2-ylsulfanyl]ethyl}-N′,N′-diethylurea] here?
**A.** 50 nM

**Q.** How did the IC50 [4] turn out when `CCC(=O)NCCSc1nc(-c2ccc(OC)cc2)c(-c2ccc(OC)cc2)[nH]1` [Compound T50] was run?
**A.** 47 nM

**Q.** How did the IC50 [5] turn out when `c1ccc(-c2nc(SCc3ccccn3)[nH]c2-c2ccccc2)cc1` [Compound T91, 2-[4,5-Diphenyl-1H-imidazol-2-ylsulfanylmethyl]pyridine] was run?
**A.** 700 nM

**Q.** For `COc1ccc(-c2nc(SCC(N)=O)[nH]c2-c2ccc(OC)cc2)cc1` [Compound T5, 2-[4,5-bis(4-methoxyphenyl)-1H-imidazol-2-ylsulfanyl]-acetamide], which IC50 (Table 2, sulfanylacetamides, pig platelets, read-out: MDA IC50) is on record?
**A.** 450 nM

**Q.** Which results are given for `CCOC(=O)CS(=O)(=O)c1nc(-c2ccc(OC)cc2)c(-c2ccc(OC)cc2)[nH]1` [Compound T80, Ethyl 2-[4,5-bis(4-methoxyphenyl)-1H-imidazol-2-ylsulfonyl]acetate]?
**A.** IC50 [6]: 7.5 nM; IC50 (tables 1 to 17, read-out: IC50 values (inhibition of cyclooxygenase-1)): ~1 nM

**Q.** `COc1ccc(-c2nc(SCCNC(=O)c3c(Cl)cccc3Cl)[nH]c2-c2ccc(OC)cc2)cc1` [Compound T36, N^1-{2-[4,5-Bis(4-methoxyphenyl)-1H-imidazol-2-ylsufanyl]ethyl}-2,6-dichlorobenzamide] was tested. Which IC50 [7] did it give?
**A.** 110 nM

**Q.** For `COc1ccc(-c2nc(SCCN)[nH]c2-c2ccc(OC)cc2)cc1` [Compound T15, 2-[4,5-Bis(4-methoxyphenyl)-1H-imidazol-2-ylsufanyl]ethanamine], which IC50 (Table 3, amines, pig platelets, read-out: MDA pIC50 (converted)) is on record?
**A.** 776 nM

**Q.** How did the IC50 [2] turn out when `O=C(NCCSc1nc(-c2ccc(Cl)cc2)c(-c2ccccc2)[nH]1)c1ccccc1` [Compound T106, N^1-{2-[4-(4-Chlorophenyl)-5-phenyl-1H-imidazol-2-ylsufanyl]ethyl}benzamide] was run?
**A.** 900 nM

**Q.** How did the IC50 (Table 10, alkylsulfonamides, pig platelets, read-out: MDA pIC50 (converted)) turn out when `CCS(=O)(=O)NCCSc1nc(-c2ccc(OC)cc2)c(-c2ccc(OC)cc2)[nH]1` [Compound T64, N^1-{2-[4,5-Bis(4-methoxyphenyl)-1H-imidazol-2-ylsulfanyl]ethyl}-ethanesulfonamide] was run?
**A.** 38.9 nM

**Q.** With `COc1ccc(-c2nc(SCCNC(=O)c3ccc(C)cc3)[nH]c2-c2ccc(OC)cc2)cc1` [Compound T47, N^1-{2-[4,5-Bis(4-methoxyphenyl)-1H-imidazol-2-ylsulfanyl]ethyl}4-methylbenzamide] as the compound, how does the IC50 [7] read?
**A.** 141 nM

**Q.** `O=C(NCCSc1nc(-c2ccc(Cl)cc2)c(-c2ccc(Cl)cc2)[nH]1)c1ccccc1` [Compound T85, N^1-{2-[4,5-Bis(4-chlorophenyl)-1H-imidazol-2-ylsufanyl]ethyl}benzamide] was tested. Which IC50 [2] did it give?
**A.** 450 nM

**Q.** Which IC50 [3] does the source give for `CCN(CC)C(=O)Sc1nc(-c2ccc(Cl)cc2)c(-c2ccccc2)[nH]1` [Compound T104, [4-(4-Chlorophenyl)-5-phenyl-1H-imidazol-2-yl]-N,N-diethylcarbamic acid thioester] here?
**A.** 4170 nM

**Q.** With `COc1ccc(-c2nc(SCCNS(=O)(=O)c3ccccc3)[nH]c2-c2ccc(OC)cc2)cc1` [Compound T17, N^1-{2-[4,5-Bis(4-methoxyphenyl)-1H-imidazol-2-ylsufanyl]ethyl}benzene-sulfonamide] as the compound, how does the IC50 (Table 8, arylsulfonamides, pig platelets, read-out: MDA IC50) read?
**A.** 50 nM

**Q.** For `COc1ccc(-c2nc(S(=O)(=O)Cc3ccccn3)[nH]c2-c2ccc(OC)cc2)cc1` [Compound T74, 2-[4,5-Bis(4-methoxyphenyl)-1H-imidazol-2-ylsulfonylmethyl]pyridine], which IC50 [6] is on record?
**A.** 81 nM

**Q.** How did the IC50 [7] turn out when `COc1ccc(-c2nc(SCCNC(=O)c3ccc(C(F)(F)F)cc3)[nH]c2-c2ccc(OC)cc2)cc1` [Compound T42, N^1-{2-[4,5-Bis(4-methoxyphenyl)-1H-imidazol-2-ylsufanyl]ethyl}-4-(tri-fluoromethyl)benzamide] was run?
**A.** 324 nM

**Q.** For `COc1ccc(-c2nc(SCCN(C)S(=O)(=O)c3ccc(Cl)cc3)n(C)c2-c2ccc(OC)cc2)cc1` [Compound T19, N^1-{2-[4,5-Bis(4-methoxyphenyl)-1-methyl-1H-imidazol-2-ylsufanyl]-ethyl}-N-1-methyl-4-chlorobenzenesulfonamide], which IC50 (Table 16, dimethyl compounds, pig platelets, read-out: MDA pIC50 (converted)) is on record?
**A.** 69.2 nM

**Q.** `COc1ccc(-c2nc(SCCNS(=O)(=O)c3c(C)cc(C)cc3C)[nH]c2-c2ccc(OC)cc2)cc1` [Compound T25, N^1-{2-[4,5-Bis(4-methoxyphenyl)-1H-imidazol-2-ylsufanyl]ethyl}-2,4,6-trimethylbenzenesulfonamide] was tested. Which IC50 (Table 8, arylsulfonamides, pig platelets, read-out: MDA pIC50 (converted)) did it give?
**A.** 324 nM

**Q.** For `COc1ccc(-c2nc(SCCNC(=O)Cc3ccccc3)[nH]c2-c2ccc(OC)cc2)cc1` [Compound T59, N^1-{2-[4,5-Bis(4-methoxyphenyl)-1H-imidazol-2-ylsulfanyl]ethyl}-2-phenylacetamide], which IC50 [4] is on record?
**A.** 54 nM

**Q.** Which IC50 [1] does the source give for `COc1ccc(-c2nc(SC(=O)N(C)C)[nH]c2-c2ccc(OC)cc2)cc1` [Compound T1, [4,5-Bis(4-methoxyphenyl)-1H-imidazol-2-yl]-N,N-dimethylcarbamic acid thioester] here?
**A.** 71 nM

**Q.** `COc1ccc(-c2nc(SCc3nc4ccccc4[nH]3)[nH]c2-c2ccc(OC)cc2)cc1` [Compound T73] was tested. Which IC50 (Table 5, heteroarylmethyl sulfides, pig platelets, read-out: MDA pIC50 (converted)) did it give?
**A.** 389 nM

**Q.** For `CCOC(=O)CSc1nc(-c2ccc(OC)cc2)c(-c2ccc(OC)cc2)[nH]1` [Compound T79, Ethyl 2-[4,5-bis(4-methoxyphenyl)-1H-imidazol-2-ylsufanyl]acetate], which IC50 (Table 14, sulfones and their sulfide analogs, pig platelets, read-out: MDA pIC50 (converted)) is on record?
**A.** 12 nM

**Q.** What does the source list for `CC(Sc1nc(-c2ccc(Cl)cc2)c(-c2ccc(Cl)cc2)n1C)C(=O)N(C)C` (stereo not shown) [Compound T88, 2-[4,5-Bis(4-chlorophenyl)-1-methyl-1H-imidazol-2-ylsufanyl]-1-(di-methylamino)propan-1-one]?
**A.** MDA pIC50 (Table 15, N,N-acetamides, pig platelets): 5.28 M; IC50 (Table 15, N,N-acetamides, pig platelets, read-out: MDA IC50): 5200 nM

**Q.** With `COc1ccc(-c2nc(SCCNC(=O)c3ccco3)[nH]c2-c2ccc(OC)cc2)cc1` [Compound T53, N^1-{2-[4,5-Bis(4-methoxyphenyl)-1H-imidazol-2-ylsulfanyl]ethyl}furan-2-carboxamide] as the compound, how does the IC50 (Table 11, heteroaryl- and naphthylamides, pig platelets, read-out: MDA pIC50 (converted)) read?
**A.** 347 nM

**Q.** How did the IC50 [7] turn out when `COc1ccc(-c2nc(SCCNC(=O)c3ccccc3[N+](=O)[O-])[nH]c2-c2ccc(OC)cc2)cc1` [Compound T41, N^1-{2-[4,5-Bis(4-methoxyphenyl)-1H-imidazol-2-ylsulfanyl]ethyl}-2-nitro-benzamide] was run?
**A.** 170 nM

**Q.** For `COc1ccc(-c2nc(SCc3ccc4ccccc4n3)[nH]c2-c2ccc(OC)cc2)cc1` [Compound T72, 2-[4,5-Bis(4-methoxyphenyl)-1H-imidazol-2-ylsulfanylmethyl]quinoline], which IC50 [5] is on record?
**A.** 90 nM

**Q.** For `COc1ccc(-c2nc(SCCC(=O)c3ccccc3)[nH]c2-c2ccc(OC)cc2)cc1` [Compound T13, 3-[4,5-Bis(4-methoxyphenyl)-1H-imidazol-2-ylsufanyl]-1-phenylpropan-1-one], which IC50 (Table 4, aryl ketones, pig platelets, read-out: MDA pIC50 (converted)) is on record?
**A.** 20.9 nM

**Q.** `COc1ccc(-c2nc(SCCNC(=O)c3cc(Cl)cc(Cl)c3)[nH]c2-c2ccc(OC)cc2)cc1` [Compound T37, N^1-{2-[4,5-Bis(4-methoxyphenyl)-1H-imidazol-2-ylsulfanyl]ethyl}-3,5-dichlorobenzamide] was tested. Which IC50 [2] did it give?
**A.** 520 nM
